Source: patent US9981959B2, “Thiazolyl and oxazolyl urea, thiourea, guanidine and cyanoguanidine compounds as TrkA kinase inhibitors” (Array BioPharma Inc., priority 2012, dated 2018)

What was measured:
ARK5 = target: T1, ARK5 (Homo sapiens, UniProt O60285); assay: KinaseProfiler off-target kinase profiling; format: biochemical; settings: 10 μM, ATP near Km
T1 construct: purchased Millipore (KinaseProfiler service)
Procedure: (§1) A representative compound of the invention (Example 2) was tested for off-target kinase activity at a concentration of 10 μM by Millipore, Inc. in their KinaseProfiler™ service against all the kinases available in their full kinase panel. The compound was run in duplicate at a concentration of ATP near the Km for each individual kinase according to Millipore's specifications. The results are shown in Table B. Data are reported as percent of control (POC) and are the average of the two replicates.

CHK2 = target: T2, CHK2 (Homo sapiens, UniProt O96017); assay: KinaseProfiler off-target kinase profiling; format: biochemical; settings: 10 μM, ATP near Km
T2 construct: purchased Millipore, Inc. (KinaseProfiler service)
Procedure: as §1

DAPK1 = target: T3, DAPK1 (Homo sapiens, UniProt P53355); assay: KinaseProfiler off-target kinase profiling; format: biochemical; settings: 10 μM, ATP near Km
T3 construct: purchased Millipore, Inc. (KinaseProfiler service)
Procedure: as §1

DYRK2 = target: T4, DYRK2 (Homo sapiens, UniProt Q92630); assay: KinaseProfiler off-target kinase profiling; format: biochemical; settings: 10 μM, ATP near Km
T4 construct: purchased Millipore, Inc. (KinaseProfiler service)
Procedure: as §1

ERK2 = target: T5, ERK2 (Homo sapiens, UniProt P28482); assay: KinaseProfiler off-target kinase profiling; format: biochemical; settings: 10 μM, ATP near Km
T5 construct: purchased Millipore, Inc. (KinaseProfiler service)
Procedure: as §1

EphA7 = target: T6, EphA7 (Rattus norvegicus, UniProt P54759); assay: KinaseProfiler off-target kinase profiling; format: biochemical; settings: 10 μM, ATP near Km
T6 construct: purchased Millipore, Inc. (KinaseProfiler service)
Procedure: as §1

FGFR4 = target: T7, FGFR4 (Homo sapiens, UniProt P22455); assay: KinaseProfiler off-target kinase profiling; format: biochemical; settings: 10 μM, ATP near Km
T7 construct: purchased Millipore, Inc. (KinaseProfiler service)
Procedure: as §1

Fer = target: T8, Fer (Homo sapiens, UniProt P16591); assay: KinaseProfiler off-target kinase profiling; format: biochemical; settings: 10 μM, ATP near Km
T8 construct: purchased Millipore, Inc. (KinaseProfiler service)
Procedure: as §1

Flt4 = target: T9, Flt4 (Homo sapiens, UniProt P35916); assay: KinaseProfiler off-target kinase profiling; format: biochemical; settings: 10 μM, ATP near Km
T9 construct: purchased Millipore, Inc. (KinaseProfiler service)
Procedure: as §1

GRK5 = target: T10, GRK5 (Homo sapiens, UniProt P34947); assay: KinaseProfiler off-target kinase profiling; format: biochemical; settings: 10 μM, ATP near Km
T10 construct: purchased Millipore, Inc. (KinaseProfiler service)
Procedure: as §1

GRK7 = target: T11, GRK7 (Homo sapiens, UniProt Q8WTQ7); assay: KinaseProfiler off-target kinase profiling; format: biochemical; settings: 10 μM, ATP near Km
T11 construct: purchased Millipore, Inc. (KinaseProfiler service)
Procedure: as §1

JAK3 = target: T12, JAK3 (Homo sapiens, UniProt P52333); assay: KinaseProfiler off-target kinase profiling; format: biochemical; settings: 10 μM, ATP near Km
T12 construct: purchased Millipore, Inc. (KinaseProfiler service)
Procedure: as §1

Lyn = target: T13, Lyn (Homo sapiens, UniProt P07948); assay: KinaseProfiler off-target kinase profiling; format: biochemical; settings: 10 μM, ATP near Km
T13 construct: purchased Millipore, Inc. (KinaseProfiler service)
Procedure: as §1

MRCKbeta = target: T14, MRCKbeta (Homo sapiens, UniProt Q9Y5S2); assay: KinaseProfiler off-target kinase profiling; format: biochemical; settings: 10 μM, ATP near Km
T14 construct: purchased Millipore, Inc. (KinaseProfiler service)
Procedure: as §1

Mer = target: T15, Mer (Homo sapiens, UniProt Q12866); assay: KinaseProfiler off-target kinase profiling; format: biochemical; settings: 10 μM, ATP near Km
T15 construct: purchased Millipore, Inc. (KinaseProfiler service)
Procedure: as §1

Met = target: T16, Met (Homo sapiens, UniProt P08581); assay: KinaseProfiler off-target kinase profiling; format: biochemical; settings: 10 μM, ATP near Km
T16 construct: purchased Millipore, Inc. (KinaseProfiler service)
Procedure: as §1

NEK2 = target: T17, NEK2 (Homo sapiens, UniProt P51955); assay: KinaseProfiler off-target kinase profiling; format: biochemical; settings: 10 μM, ATP near Km
T17 construct: purchased Millipore, Inc. (KinaseProfiler service)
Procedure: as §1

PASK = target: T18, PASK (Homo sapiens, UniProt Q96RG2); assay: KinaseProfiler off-target kinase profiling; format: biochemical; settings: 10 μM, ATP near Km
T18 construct: purchased Millipore, Inc. (KinaseProfiler service)
Procedure: as §1

PKCgamma = target: T19, PKCgamma (Homo sapiens, UniProt P05129); assay: KinaseProfiler off-target kinase profiling; format: biochemical; settings: 10 μM, ATP near Km
T19 construct: purchased Millipore, Inc. (KinaseProfiler service)
Procedure: as §1

PRKG1alpha = target: T20, PRKG1alpha (Homo sapiens, UniProt Q13976); assay: KinaseProfiler off-target kinase profiling; format: biochemical; settings: 10 μM, ATP near Km
T20 construct: purchased Millipore, Inc. (KinaseProfiler service)
Procedure: as §1

Plk1 = target: T21, Plk1 (Homo sapiens, UniProt P53350); assay: KinaseProfiler off-target kinase profiling; format: biochemical; settings: 10 μM, ATP near Km
T21 construct: purchased Millipore, Inc. (KinaseProfiler service)
Procedure: as §1

RIPK2 = target: T22, RIPK2 (Homo sapiens, UniProt O43353); assay: KinaseProfiler off-target kinase profiling; format: biochemical; settings: 10 μM, ATP near Km
T22 construct: purchased Millipore, Inc. (KinaseProfiler service)
Procedure: as §1

Rsk4 = target: T23, Rsk4 (Homo sapiens, UniProt Q9UK32); assay: KinaseProfiler off-target kinase profiling; format: biochemical; settings: 10 μM, ATP near Km
T23 construct: purchased Millipore, Inc. (KinaseProfiler service)
Procedure: as §1

SGK3 = target: T24, SGK3 (Homo sapiens, UniProt Q96BR1); assay: KinaseProfiler off-target kinase profiling; format: biochemical; settings: 10 μM, ATP near Km
T24 construct: purchased Millipore, Inc. (KinaseProfiler service)
Procedure: as §1

TAK1 = target: T25, TAK1 (Homo sapiens, UniProt O43318); assay: KinaseProfiler off-target kinase profiling; format: biochemical; settings: 10 μM, ATP near Km
T25 construct: purchased Millipore, Inc. (KinaseProfiler service)
Procedure: as §1

TLK2 = target: T26, TLK2 (Homo sapiens, UniProt Q86UE8); assay: KinaseProfiler off-target kinase profiling; format: biochemical; settings: 10 μM, ATP near Km
T26 construct: purchased Millipore, Inc. (KinaseProfiler service)
Procedure: as §1

TSSK2 = target: T27, TSSK2 (Homo sapiens, UniProt Q96PF2); assay: KinaseProfiler off-target kinase profiling; format: biochemical; settings: 10 μM, ATP near Km
T27 construct: purchased Millipore, Inc. (KinaseProfiler service)
Procedure: as §1

TrkA [1] = target: T28, TrkA (Homo sapiens, UniProt P04629); assay: KinaseProfiler off-target kinase profiling; format: biochemical; parameters: purchased Millipore, Inc. (KinaseProfiler service); settings: 10 μM, ATP near Km
Procedure: as §1, with “specifications.” for “specifications. The results are shown in Table B. Data are reported as percent of control (POC) and are the average of the two replicates.”
Target sequence in this assay (P04629 33-796): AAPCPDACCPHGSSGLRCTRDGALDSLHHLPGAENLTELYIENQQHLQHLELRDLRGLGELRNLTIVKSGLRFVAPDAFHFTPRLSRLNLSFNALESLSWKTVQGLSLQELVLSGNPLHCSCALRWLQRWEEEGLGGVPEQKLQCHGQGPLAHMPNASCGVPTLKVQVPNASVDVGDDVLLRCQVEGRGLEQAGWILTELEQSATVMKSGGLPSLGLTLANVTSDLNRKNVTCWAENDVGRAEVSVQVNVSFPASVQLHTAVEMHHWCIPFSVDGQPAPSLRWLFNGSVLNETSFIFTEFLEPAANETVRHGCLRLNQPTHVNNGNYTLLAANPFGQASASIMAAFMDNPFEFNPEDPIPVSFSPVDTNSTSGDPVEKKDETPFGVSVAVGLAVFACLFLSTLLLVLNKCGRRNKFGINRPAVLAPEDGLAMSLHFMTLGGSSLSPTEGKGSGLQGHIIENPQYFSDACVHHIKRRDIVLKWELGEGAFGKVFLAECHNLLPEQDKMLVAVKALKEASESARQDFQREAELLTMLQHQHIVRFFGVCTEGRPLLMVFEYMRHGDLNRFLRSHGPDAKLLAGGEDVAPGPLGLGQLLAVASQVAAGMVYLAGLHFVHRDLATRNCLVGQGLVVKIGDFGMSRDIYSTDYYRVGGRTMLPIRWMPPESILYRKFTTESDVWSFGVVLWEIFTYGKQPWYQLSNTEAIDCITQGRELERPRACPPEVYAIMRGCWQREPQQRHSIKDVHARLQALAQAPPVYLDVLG

TrkA [2] = target: T28, TrkA; assay: TrkA LanthaScreen Eu Kinase Binding Assay; parameters: 6HIS tagged cytoplasmic domain from Invitrogen, Cat. No. PV3144; purchased Invitrogen PV3144; settings: averaged IC50; TR-FRET binding, 60 min, 22° C.; read-out: TrkA enzyme IC50
Procedure: TrkA binding activity was determined in a TrkA LanthaScreen™ Eu Kinase Binding Assay. 5 nM His-tagged recombinant human TrkA (6HIS tagged cytoplasmic domain from Invitrogen, Cat. No. PV3144) was incubated with 4 nM Alexa-Fluor® Tracer 236 (Invitrogen Cat. No. PV5592), 2 nM biotinylated anti-His (Invitrogen Cat. No. PV6090), and 2 nM europium-labeled Streptavidin (Invitrogen Cat. No. PV5899), in buffer (25 mM MOPS, pH 7.5, 5 mM MgCl2, 0.005% Triton X-100). Three fold serial dilutions of compounds of the invention in DMSO were added to a final percentage of 2% DMSO. After 60-minute incubation at 22° C., the reaction was measured using the EnVision mutlimode plate reader (PerkinElmer) via TR-FRET dual wavelength detection at […]. The percent of control was calculated using a ratiometric emission factor. The IC50 values were determined by fitting a four parameter model to the percent of control data.
Table A provides averaged IC50 values for compounds of the invention when tested in the assay of Example A, where A represents an averaged IC50 value <100 nM; and B represents an averaged IC50 value from 100 to 1,000 nM.
Target sequence in this assay (P04629 440-796 limits assumed): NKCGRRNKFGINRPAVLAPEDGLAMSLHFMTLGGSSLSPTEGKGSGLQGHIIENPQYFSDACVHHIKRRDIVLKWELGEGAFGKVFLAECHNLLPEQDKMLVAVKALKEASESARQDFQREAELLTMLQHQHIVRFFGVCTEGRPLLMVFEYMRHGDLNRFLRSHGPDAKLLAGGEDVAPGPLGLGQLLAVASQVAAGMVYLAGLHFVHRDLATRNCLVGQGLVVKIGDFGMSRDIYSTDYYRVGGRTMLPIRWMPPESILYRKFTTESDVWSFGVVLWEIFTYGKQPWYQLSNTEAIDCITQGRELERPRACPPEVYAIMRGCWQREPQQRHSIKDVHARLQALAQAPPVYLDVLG

T10 sequence (P34947 whole entry): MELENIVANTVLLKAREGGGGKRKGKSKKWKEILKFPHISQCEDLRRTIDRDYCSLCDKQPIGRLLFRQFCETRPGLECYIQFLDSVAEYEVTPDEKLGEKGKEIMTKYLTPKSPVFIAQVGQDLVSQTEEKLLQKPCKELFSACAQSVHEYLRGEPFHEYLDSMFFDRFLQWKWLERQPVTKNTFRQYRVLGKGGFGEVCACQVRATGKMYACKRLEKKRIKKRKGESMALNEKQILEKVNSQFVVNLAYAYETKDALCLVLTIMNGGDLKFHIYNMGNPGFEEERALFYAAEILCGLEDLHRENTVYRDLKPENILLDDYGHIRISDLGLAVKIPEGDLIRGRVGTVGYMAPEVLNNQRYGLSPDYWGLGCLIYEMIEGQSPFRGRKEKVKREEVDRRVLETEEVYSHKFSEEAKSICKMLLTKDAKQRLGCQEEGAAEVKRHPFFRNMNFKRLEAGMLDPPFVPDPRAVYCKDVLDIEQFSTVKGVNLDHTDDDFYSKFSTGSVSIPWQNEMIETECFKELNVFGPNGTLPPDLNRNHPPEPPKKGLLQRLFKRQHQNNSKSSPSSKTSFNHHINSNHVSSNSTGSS
T17 sequence (P51955 whole entry): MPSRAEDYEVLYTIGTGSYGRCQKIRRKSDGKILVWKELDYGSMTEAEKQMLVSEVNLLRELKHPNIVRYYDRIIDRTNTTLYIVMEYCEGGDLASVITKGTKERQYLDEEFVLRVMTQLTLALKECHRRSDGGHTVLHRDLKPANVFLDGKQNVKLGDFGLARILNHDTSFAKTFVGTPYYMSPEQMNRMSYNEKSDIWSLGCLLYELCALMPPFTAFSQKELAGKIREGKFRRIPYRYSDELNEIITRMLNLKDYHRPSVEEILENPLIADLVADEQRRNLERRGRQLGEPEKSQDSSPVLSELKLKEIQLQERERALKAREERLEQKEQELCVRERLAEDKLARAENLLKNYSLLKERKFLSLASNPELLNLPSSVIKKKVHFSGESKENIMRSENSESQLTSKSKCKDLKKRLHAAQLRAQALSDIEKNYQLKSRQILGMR
T8 sequence (P16591 whole entry): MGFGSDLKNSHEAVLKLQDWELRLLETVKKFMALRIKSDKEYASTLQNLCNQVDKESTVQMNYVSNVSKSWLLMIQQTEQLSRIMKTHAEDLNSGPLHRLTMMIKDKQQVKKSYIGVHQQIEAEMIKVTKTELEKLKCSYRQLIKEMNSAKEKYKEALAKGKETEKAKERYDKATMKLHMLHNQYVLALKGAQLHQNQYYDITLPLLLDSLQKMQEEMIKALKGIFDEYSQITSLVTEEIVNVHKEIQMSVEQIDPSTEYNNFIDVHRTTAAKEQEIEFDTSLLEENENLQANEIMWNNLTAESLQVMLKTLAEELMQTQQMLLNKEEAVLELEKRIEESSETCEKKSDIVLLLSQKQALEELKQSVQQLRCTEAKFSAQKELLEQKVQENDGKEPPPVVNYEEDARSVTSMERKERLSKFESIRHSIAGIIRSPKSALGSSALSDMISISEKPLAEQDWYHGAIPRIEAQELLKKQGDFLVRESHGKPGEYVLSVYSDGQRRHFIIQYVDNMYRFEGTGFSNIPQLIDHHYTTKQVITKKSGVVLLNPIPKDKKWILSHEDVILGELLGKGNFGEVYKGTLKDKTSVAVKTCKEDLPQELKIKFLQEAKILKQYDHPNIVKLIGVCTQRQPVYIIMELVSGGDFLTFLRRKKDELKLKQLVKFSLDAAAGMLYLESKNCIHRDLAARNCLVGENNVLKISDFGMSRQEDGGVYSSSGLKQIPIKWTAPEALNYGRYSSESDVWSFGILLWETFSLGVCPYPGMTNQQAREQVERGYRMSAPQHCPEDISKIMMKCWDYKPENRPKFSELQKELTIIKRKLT
T26 sequence (Q86UE8 whole entry): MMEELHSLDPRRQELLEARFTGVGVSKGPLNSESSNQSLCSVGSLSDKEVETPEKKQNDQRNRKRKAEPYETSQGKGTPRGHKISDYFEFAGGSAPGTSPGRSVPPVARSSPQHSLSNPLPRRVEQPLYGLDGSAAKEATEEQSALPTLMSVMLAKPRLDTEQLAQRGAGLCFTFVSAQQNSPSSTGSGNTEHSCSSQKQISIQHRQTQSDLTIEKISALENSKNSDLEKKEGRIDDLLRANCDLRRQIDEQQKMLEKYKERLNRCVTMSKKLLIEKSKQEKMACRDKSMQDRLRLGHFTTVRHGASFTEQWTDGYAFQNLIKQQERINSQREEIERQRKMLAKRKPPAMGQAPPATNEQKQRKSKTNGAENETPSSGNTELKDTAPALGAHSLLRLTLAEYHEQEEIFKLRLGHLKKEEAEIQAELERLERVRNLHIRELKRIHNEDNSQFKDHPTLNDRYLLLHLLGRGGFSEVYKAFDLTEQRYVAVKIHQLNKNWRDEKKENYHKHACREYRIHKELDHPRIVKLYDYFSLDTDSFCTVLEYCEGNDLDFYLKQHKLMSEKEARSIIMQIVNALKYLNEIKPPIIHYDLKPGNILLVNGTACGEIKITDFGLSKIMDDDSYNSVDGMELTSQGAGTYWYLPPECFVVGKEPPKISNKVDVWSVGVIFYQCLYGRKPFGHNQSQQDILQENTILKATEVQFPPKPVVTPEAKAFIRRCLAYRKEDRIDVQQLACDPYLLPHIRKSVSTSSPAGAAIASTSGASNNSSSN
T15 sequence (Q12866 21-999): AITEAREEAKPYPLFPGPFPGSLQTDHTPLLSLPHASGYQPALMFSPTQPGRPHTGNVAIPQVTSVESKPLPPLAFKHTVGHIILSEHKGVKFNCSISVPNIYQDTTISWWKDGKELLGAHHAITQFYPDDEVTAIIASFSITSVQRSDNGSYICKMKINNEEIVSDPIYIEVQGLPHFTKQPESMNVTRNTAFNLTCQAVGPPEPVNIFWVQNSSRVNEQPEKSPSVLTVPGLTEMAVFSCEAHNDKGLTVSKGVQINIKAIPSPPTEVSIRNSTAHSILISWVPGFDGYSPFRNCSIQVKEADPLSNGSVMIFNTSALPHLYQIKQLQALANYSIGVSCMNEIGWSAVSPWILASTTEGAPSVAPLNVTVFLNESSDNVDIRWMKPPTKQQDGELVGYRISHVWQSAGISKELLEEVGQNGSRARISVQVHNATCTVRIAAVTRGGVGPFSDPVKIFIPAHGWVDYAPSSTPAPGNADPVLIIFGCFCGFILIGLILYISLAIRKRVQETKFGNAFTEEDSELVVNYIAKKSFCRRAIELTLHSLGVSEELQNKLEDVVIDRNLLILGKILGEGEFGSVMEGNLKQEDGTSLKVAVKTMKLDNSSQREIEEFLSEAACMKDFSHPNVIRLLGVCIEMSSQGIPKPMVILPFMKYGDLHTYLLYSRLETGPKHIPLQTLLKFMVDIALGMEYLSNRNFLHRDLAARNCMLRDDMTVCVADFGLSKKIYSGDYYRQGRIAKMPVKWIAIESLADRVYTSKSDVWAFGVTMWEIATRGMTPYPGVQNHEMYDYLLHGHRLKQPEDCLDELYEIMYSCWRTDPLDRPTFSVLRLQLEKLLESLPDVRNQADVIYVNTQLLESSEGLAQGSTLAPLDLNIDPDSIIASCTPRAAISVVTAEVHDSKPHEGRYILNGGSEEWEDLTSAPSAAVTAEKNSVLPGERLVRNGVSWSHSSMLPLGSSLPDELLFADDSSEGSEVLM
T25 sequence (O43318 1-303 limits assumed): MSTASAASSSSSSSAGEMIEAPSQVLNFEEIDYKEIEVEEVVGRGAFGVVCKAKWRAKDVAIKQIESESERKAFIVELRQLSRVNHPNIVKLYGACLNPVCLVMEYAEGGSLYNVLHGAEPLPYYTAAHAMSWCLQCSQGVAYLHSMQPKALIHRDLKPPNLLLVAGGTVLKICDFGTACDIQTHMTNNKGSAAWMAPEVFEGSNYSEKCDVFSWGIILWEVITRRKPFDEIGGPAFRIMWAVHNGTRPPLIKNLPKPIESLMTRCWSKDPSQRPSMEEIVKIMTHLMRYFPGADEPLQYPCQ

Avg POC (ARK5): 102 POC | Avg POC (CHK2): 133 POC | Avg POC (DAPK1): 126.5 POC | Avg POC (DYRK2): 88 POC | Avg POC (ERK2): 135 POC | Avg POC (EphA7): 103 POC | Avg POC (FGFR4): 141.5 POC | Avg POC (Fer): 78.5 POC | Avg POC (Flt4): 107 POC | Avg POC (GRK5): 82.5 POC | Avg POC (GRK7): 112 POC | Avg POC (JAK3): 113 POC | Avg POC (Lyn): 103.5 POC | Avg POC (MRCKbeta): 113 POC | Avg POC (Mer): 105.5 POC | Avg POC (Met): 120 POC | Avg POC (NEK2): 122.5 POC | Avg POC (PASK): 113 POC | Avg POC (PKCgamma): 90 POC | Avg POC (PRKG1alpha): 118 POC | Avg POC (Plk1): 103.5 POC | Avg POC (RIPK2): 98 POC | Avg POC (Rsk4): 98 POC | Avg POC (SGK3): 151 POC | Avg POC (TAK1): 95.5 POC | Avg POC (TLK2): 98 POC | Avg POC (TSSK2): 142.5 POC | Avg POC (TrkA [1]): −1 POC | IC50 (TrkA [2]): < 100 nM
SMILES: Cc1c(-c2cnn(C)c2)nn(-c2ccccc2)c1NC(=O)Nc1sc(C(F)(F)F)nc1-c1ccccc1 [Example 2, 1-(1′,4-dimethyl-1-phenyl-1H,1′H-[3,4′-bipyrazol]-5-yl)-3-(4-phenyl-2-(trifluoromethyl)thiazol-5-yl)urea]
